Experimental data: paper PMC3161034 (BMC Cancer, 2011)

Tests used:
clinical = details: for Tmax: Median tmax
Procedure: Plasma concentrations of motesanib were analyzed using a validated liquid chromatography/tandem mass spectrometry (LC-MS/MS) method with a lower limit of quantitation (LLOQ) of 0.2 ng/mL (Cedra Corp., Austin, TX).
Pharmacokinetic parameter estimates were calculated according to standard noncompartmental methods using WinNonlin software (version 5.1.1; Pharsight Corporation, Mountain View, CA) and summarized by dose level. […] For the BID cohort, AUC0—24 values for motesanib were determined by 2 × AUC0—12. The terminal elimination rate constant (λZ) was determined by linear regression of the natural logarithms of plasma concentrations versus time during the terminal phase; the corresponding t1/2 was calculated.
The GLSM were calculated by first obtaining the least squares means for the log-transformed Cmax values (logCmax) and AUC0—24 values (logAUC0—24) for weeks 3 and 2, and then converting these values back to the original scale. The ratio and 90% confidence interval (CI) of GLSM was calculated by first estimating the difference (and 90% CI) in the least squares means between weeks 3 and 2 for logCmax and logAUC0—24, and then converting the numbers back to their original scale.

[1] = tested on: patients with advanced NSCLC; details: cited from earlier work
[2] = tested on: patients with solid tumors; assay: Adverse events graded by CTCAE version 3.0, relatedness by investigator; assay type: in vivo, human; details: for Patients discontinuing treatment with the drug because of adverse events: all cohorts
Procedure: Cohort enrollment could be expanded to ensure that at least 6 evaluable patients were enrolled or in the event of unresolved safety, pharmacokinetic, or other concerns. The overall sample size could be further increased if additional dose cohorts were considered justified based on the results from the dose-escalation portion of the study. For continuous endpoints, the mean, standard error or standard deviation (SD); median; 25th and 75th percentiles; and minimum and maximum were calculated. For discrete data, the frequency and percent distributions were calculated. No formal comparisons between cohorts were performed. The data were analyzed using SAS software version 8.2 (SAS Institute, Cary, NC). […] The safety analysis set included all patients who received at least 1 dose of study therapy.

CYP1A2 = details: cited from earlier work
[3] = tested on: cytochrome P450 (CYP) 3A4; details: cited from earlier work
deoxycytidine deaminase = tested on: deoxycytidine deaminase; parameters: method as in PMID 16807468; details: cited from earlier work
[4] = 56 patients who received erlotinib

| SMILES | Mean t1/2, z (clinical; human, in vivo, 100 mg) [h] | half-life (clinical; human, in vivo, 100 mg, Mean t1/2, z) [h] | Tmax (clinical; human, in vivo, 100 mg) [h] | Median tmax (clinical; human, in vivo, 150 mg) [h] | Tmax (clinical; human, in vivo, 150 mg) [h] | Overall median tmax (clinical; week 3, 100 mg erlotinib QD with gemcitabine and motesanib) [h] | Progression-free survival ([1]; phase 3, advanced NSCLC after failed first-line therapy) [mo] | Response rate ([1]; phase 3, P = 0.006) [%] | Overall survival ([1]; phase 3) [mo] | Erlotinib-related anorexia [2, 4] [n] | Erlotinib-related diarrhea [2, 4] [n] | Erlotinib-related fatigue [2, 4] [n] | Erlotinib-related nausea [2, 4] [n] | Erlotinib-related rash [2, 4] [n] | Erlotinib-related vomiting [2, 4] [n] | Patients discontinuing treatment with the drug because of adverse events [2] [n] | Incidence of erlotinib-related skin rash ([2]; present study, all patients) [%] | Metabolism by CYP1A2 (CYP1A2) | Metabolism by CYP3A4 [3] | Metabolism by deoxycytidine deaminase (deoxycytidine deaminase) |
| --- | --- | --- | --- | --- | --- | --- | --- | --- | --- | --- | --- | --- | --- | --- | --- | --- | --- | --- | --- | --- |
| C#Cc1cccc(Nc2ncnc3cc(OCCOC)c(OCCOC)cc23)c1 [erlotinib] | 12 to 19 | 17 to 33 | 2 to 6 | 2 to 4 | 1 to 3 | 2 | 1.7 | 6.2 | 9.2 | 16 | 35 | 14 | 23 | 42 | 15 | 7 | 75 | metabolized at least in part | metabolized at least in part |  |
| Nc1ccn([C@@H]2O[C@H](CO)[C@@H](O)C2(F)F)c(=O)n1 [gemcitabine, reference compound] |  |  |  |  |  |  |  |  |  |  |  |  |  |  |  | 8 |  |  |  | primarily metabolized |
